Holding throughout (format): cell-based
For assay [1], the system named is Mycobacterium fortuitum. As to the kind of experiment: MIC by micro broth dilution method (resazurin microtiter assay). The following applies: Mycolicibacterium fortuitum, MH Culture Medium, read-out: Minimum Inhibitory Concentration (MIC).
Assay [2] has as its system Mycobacterium intracellulare. The description is as above. The following applies: Mycobacterium intracellulare, MH Culture Medium, read-out: Minimum Inhibitory Concentration (MIC).
Assay [3] relates to Mycobacterium kansasii. Described as above. The following applies: Mycobacterium kansasii, read-out: Minimum Inhibitory Concentration (MIC).
Assay [4] has as its system Mycobacterium massiliense. The assay is described as above. The following applies: Mycobacteroides abscessus, MH Culture Medium, read-out: Minimum Inhibitory Concentration (MIC).
Assay [5] concerns Mycodacterium chelonei. Described as above. As to conditions: MH Culture Medium; Chelonei (standard strain); read-out: Minimum Inhibitory Concentration (MIC).
Assay [6] concerns Mycobacterium avium. The description is as above. The following applies: read-out: Minimum Inhibitory Concentration (MIC).
Assay [7] relates to Mycobacterium avium. As to the kind of experiment: MBC test (plating on agar, CFU count). As to conditions: Mycobacterium avium, read-out: Minimum Bactericidal Concentration (MBC).
Assay [8] has as its system Mycobacterium abscessus. As to the kind of experiment: MIC by micro broth dilution method (resazurin microtiter assay). As to conditions: Mycobacteroides abscessus, read-out: Minimum Inhibitory Concentration (MIC).
The subject of assay [9] is Mycobacterium abscessus. As to the kind of experiment: MBC test (plating on agar, CFU count). As to conditions: for Minimum Bactericidal Concentration (MBC): MH Culture Medium; for MBC: Mycobacteroides abscessus, 7H9 Culture Medium, read-out: Minimum Bactericidal Concentration (MBC).
Assay [10] concerns Mycobacterium kansasii. In words: MBC test (plating on agar, CFU count). The following applies: Mycobacterium kansasii, Mycobacterium kansasii, read-out: Minimum Bactericidal Concentration (MBC).
Setting [11] is: clinically isolated strain Fortuitum (S103).
Setting [12] is: clinically isolated strain Fortuitum (S111).
The mark [13] stands for this setting: Intracellulare (standard strain).
Setting [14] is: clinically isolated strain Intracellulare (S90).
Where [15] appears, read: clinically isolated strain Intracellulare (S261).
[16] abbreviates: clinically isolated strain Intracellulare (S269).
The mark [17] stands for this setting: clinically isolated strain Intracellulare (S290).
The mark [18] stands for this setting: clinically isolated strain Intracellulare (S291).
Setting [19] is: clinically isolated strain Intracellulare (S298).
Where [20] appears, read: clinically isolated strain Intracellulare (S541).
[21] abbreviates: clinically isolated strain Intracellulare (S623).
Where [22] appears, read: clinically isolated strain Intracellulare (ZPS).
Where [23] appears, read: clinically isolated strain intracellulare (S442).
Setting [24] is: MH Culture Medium, Kansasii (standard strain).
Where [25] appears, read: MH Culture Medium, clinically isolated strain Kansasii (S9).
The mark [26] stands for this setting: MH Culture Medium, clinically isolated strain Kansasii (S199).
The mark [27] stands for this setting: MH Culture Medium, clinically isolated strain Kansasii (S520).
[28] abbreviates: MH Culture Medium, clinically isolated strain Kansasii (S609).
Where [29] appears, read: clinically isolated strain Massiliense (D10).
[30] abbreviates: clinically isolated strain Massiliense (D14).
Where [31] appears, read: clinically isolated strain Massiliense (D18).
The mark [32] stands for this setting: MH Culture Medium, Avium (standard strain).
[33] abbreviates: MH Culture Medium, clinically isolated strain Avium (S31).
The mark [34] stands for this setting: MH Culture Medium, clinically isolated strain Avium (S123).
Where [35] appears, read: MH Culture Medium, clinically isolated strain Avium (S559).
[36] abbreviates: MH Culture Medium, clinically isolated strain Avium (S568).
[37] abbreviates: MH Culture Medium, clinically isolated strain Avium (S577).
Where [38] appears, read: MH Culture Medium, clinically isolated strain Avium (S597).
[39] abbreviates: MH Culture Medium, clinically isolated strain Avium (S602).
The mark [40] stands for this setting: 7H9 Culture Medium, Mycobacterium avium Smooth.
[41] abbreviates: MH Culture Medium, Mycobacterium avium Smooth.
[42] abbreviates: 7H9 Broth, Mycobacterium avium Smooth.
[43] abbreviates: MH Broth, Mycobacterium avium Smooth.

Converted amounts (≈) assume the structure as drawn. Read-outs that look alike come from different tables or passages of the source.

Take `COc1c(N2C[C@@H]3CCCN[C@@H]3C2)c(F)cc2c(=O)c(C(=O)O)cn(C3CC3)c12` [Moxifloxacin, moxifloxacin]: the MIC in assay [1] (Fortuitum (standard strain)) was found to be 1 µg/mL (≈ 2.49 µM); in assay [1] (setting [11]) it was 1 µg/mL (≈ 2.49 µM); in assay [1] (setting [12]) it was 0.5 µg/mL (≈ 1.25 µM); in assay [2] (setting [13]), 0.25 µg/mL (≈ 0.623 µM); in [2] (setting [14]) it was 2 µg/mL (≈ 4.98 µM); in assay [2] (setting [15]), 2 µg/mL (≈ 4.98 µM). Moreover, the MIC in assay [2] (setting [16]) came out at 2 µg/mL (≈ 4.98 µM); in assay [2] (setting [17]), 2 µg/mL (≈ 4.98 µM); in [2] (setting [18]) it was 1 µg/mL (≈ 2.49 µM); in assay [2] (setting [19]), 2 µg/mL (≈ 4.98 µM); in assay [2] (setting [20]) it was 64 µg/mL (≈ 159 µM); in assay [2] (setting [21]), 2 µg/mL (≈ 4.98 µM). Besides, the MIC amounted to 1 µg/mL (≈ 2.49 µM) in assay [2] (setting [22]); 2 µg/mL (≈ 4.98 µM) in assay [2] (setting [23]); 0.0625 µg/mL (≈ 0.156 µM) in assay [3] (setting [24]); 0.0625 µg/mL (≈ 0.156 µM) in assay [3] (setting [25]); 0.0625 µg/mL (≈ 0.156 µM) in [3] (setting [26]); 0.0625 µg/mL (≈ 0.156 µM) in [3] (setting [27]). For the same molecule, the MIC turned out to be 0.0625 µg/mL (≈ 0.156 µM) in assay [3] (setting [28]); 32 µg/mL (≈ 79.7 µM) in assay [4] (setting [29]); 32 µg/mL (≈ 79.7 µM) in assay [4] (setting [30]); 8 µg/mL (≈ 19.9 µM) in assay [4] (setting [31]); 4 µg/mL (≈ 9.96 µM) in assay [5]; 1 µg/mL (≈ 2.49 µM) in assay [6] (setting [32]). The MIC in assay [6] (setting [33]) was found to be 8 µg/mL (≈ 19.9 µM); in [6] (setting [34]), 0.5 µg/mL (≈ 1.25 µM); in assay [6] (setting [35]) it was 1 µg/mL (≈ 2.49 µM); in [6] (setting [36]), 0.5 µg/mL (≈ 1.25 µM); in assay [6] (setting [37]), 0.5 µg/mL (≈ 1.25 µM); in [6] (setting [38]), 2 µg/mL (≈ 4.98 µM). Besides, the MIC in assay [6] (setting [39]) was 4 µg/mL (≈ 9.96 µM).
Take `O=C(O)c1cn(C2CC2)c2cc(N3CCNCC3)c(F)cc2c1=O` [Ciprofloxacin, ciprofloxacin]: the MBC in assay [7] (setting [40]), in assay [7] (setting [41]), in assay [9], in [10] (7H9 Culture Medium) and in assay [10] (MH Culture Medium) was greater than 64 µg/mL throughout. Further, the MIC in assay [8] (7H9 Broth) is 16 µg/mL (≈ 48.3 µM); in assay [8] (MH Broth) it was greater than 64 µg/mL; in [3] (7H9 Broth), greater than 64 µg/mL; in assay [3] (MH Broth) it was greater than 64 µg/mL; in assay [6] (setting [42]), greater than 64 µg/mL; in assay [6] (setting [43]) it was greater than 64 µg/mL. Moreover, the “Minimum Bactericidal Concentration (MBC)” value in assay [9] is greater than 64 µg/mL.
As for `CO[C@H]1/C=C/O[C@@]2(C)Oc3c(C)c(O)c4c(c3C2=O)C2=NC3(CCN(CC(C)C)CC3)NC2=C(NC(=O)/C(C)=C\C=C\[C@H](C)[C@H](O)[C@@H](C)[C@@H](O)[C@@H](C)[C@H](OC(C)=O)[C@@H]1C)C4=O` [Rifabutin, rifabutin], the MIC in assay [1] (Fortuitum (standard strain)) stood at 4 µg/mL (≈ 4.72 µM); in assay [1] (setting [11]) it was 32 µg/mL (≈ 37.8 µM); in assay [1] (setting [12]), 4 µg/mL (≈ 4.72 µM); in [2] (setting [13]), 0.0625 µg/mL (≈ 0.0738 µM); in assay [2] (setting [14]), 0.125 µg/mL (≈ 0.148 µM); in assay [2] (setting [15]) it was 0.25 µg/mL (≈ 0.295 µM). The MIC in [2] (setting [16]) was 0.0625 µg/mL (≈ 0.0738 µM); in [2] (setting [17]), 0.0625 µg/mL (≈ 0.0738 µM); in assay [2] (setting [18]) it was 0.0625 µg/mL (≈ 0.0738 µM); in assay [2] (setting [19]) it was 0.5 µg/mL (≈ 0.59 µM); in [2] (setting [20]), 0.125 µg/mL (≈ 0.148 µM); in assay [2] (setting [21]), 0.25 µg/mL (≈ 0.295 µM). Further, the MIC in assay [2] (setting [22]), in assay [2] (setting [23]), in [3] (setting [24]), in assay [3] (setting [25]), in assay [3] (setting [26]) and in assay [3] (setting [27]) was 0.0625 µg/mL (≈ 0.0738 µM) in each case. The MIC was 0.0625 µg/mL (≈ 0.0738 µM) in assay [3] (setting [28]); greater than 64 µg/mL in [4] (setting [29]); 64 µg/mL (≈ 75.6 µM) in [4] (setting [30]); 64 µg/mL (≈ 75.6 µM) in assay [4] (setting [31]); 64 µg/mL (≈ 75.6 µM) in assay [5]; 0.0625 µg/mL (≈ 0.0738 µM) in assay [6] (setting [32]). The MIC in assay [6] (setting [33]), in assay [6] (setting [34]), in assay [6] (setting [35]), in [6] (setting [36]), in [6] (setting [37]) and in [6] (setting [38]) was 0.0625 µg/mL (≈ 0.0738 µM) throughout. Further, the MIC in assay [6] (setting [39]) stood at 0.0625 µg/mL (≈ 0.0738 µM).
As to `NCC[C@H](O)C(=O)N[C@@H]1C[C@H](N)[C@@H](O[C@H]2O[C@H](CN)[C@@H](O)[C@H](O)[C@H]2O)[C@H](O)[C@H]1O[C@H]1O[C@H](CO)[C@@H](O)[C@H](N)[C@H]1O` [Amikacin, amikacin], the MBC in assay [7] (7H9 Culture Medium, Mycobacterium avium Rough) is greater than 64 µg/mL; in [7] (setting [40]) it was greater than 64 µg/mL; in assay [7] (MH Culture Medium, Mycobacterium avium Rough), greater than 64 µg/mL; in assay [7] (setting [41]), greater than 64 µg/mL; in assay [9] it was greater than 64 µg/mL; in assay [10] (7H9 Culture Medium), 64 µg/mL (≈ 109 µM). In addition, the MBC in [10] (MH Culture Medium) was greater than 64 µg/mL. Further, the MIC in assay [8] (7H9 Broth) was 32 µg/mL (≈ 54.6 µM); in [8] (MH Broth), 16 µg/mL (≈ 27.3 µM); in assay [3] (7H9 Broth) it was 16 µg/mL (≈ 27.3 µM); in assay [3] (MH Broth), 1 µg/mL (≈ 1.71 µM); in [6] (7H9 Broth, Mycobacterium avium Rough) it was greater than 64 µg/mL; in assay [6] (setting [42]), 2 µg/mL (≈ 3.42 µM). In addition, the MIC was 2 µg/mL (≈ 3.42 µM) in [6] (MH Broth, Mycobacterium avium Rough) and 2 µg/mL (≈ 3.42 µM) in [6] (setting [43]). For the same molecule, the “Minimum Bactericidal Concentration (MBC)” value in [9] was greater than 64 µg/mL.
